Key:
[1] = system: low-buoyancy cortical cells; assay: Acquisition of neuron competence by low-buoyancy cortical cells in culture; format: cell-based, rat
Text: Tissue dissection: Three areas were dissected from adult rat brains as follows. Rats (170-190 g Fisher 344 males or females, Harlan) were deeply anesthetized with a mixture of ketamine, xylazine, and acepromazine. Animals were decapitated and whole brains removed. First, ˜1.5 mm of each optic nerve were harvested rostral to, but not including, the optic chiasma. The brain was then bisected longitudinally and each hippocampal lobe separated from the overlaying cortical white matter using the natural separation line along the alveus hippocampus. The white matter of the fimbria and subiculum was removed as much as possible. Some white matter remained. Finally, a 1.5 mm wide cortical ribbon containing parietal and frontal segments was dissected longitudinally, proximal to the central fissure. The pial and callosal surfaces were trimmed from each cortical ribbon to remove a majority of the meninges and white matter.
Tissue dissociation and fractionation: Tissues were finely minced and digested in a solution of papain (2.5 U/ml, Worthington), DNAse (250 U/ml, Worthington), and neutral protease (1 U/ml Dispase, Boehringer) dissolved in Hanks balanced salt solution, as described in Palmer T D, Ray J, Gage F H (1995), FGF-2-Responsive Neuronal Progenitors Reside in Proliferative and Quiescent Regions of the Adult Rodent Brain. Mol Cell Neurosci 6:474-486; and Gage F H, Coates P W, Palmer T D, Kuhn H G, Fisher L J, Suhonen J O, Peterson D A, Suhr S T, Ray J (1995), Survival and differentiation of adult neuronal progenitor cells transplanted to the adult brain. Proc Natl Acad Sci USA 92:11879-11883. Cells and tissue fragments were washed 3 times with Dulbecco's Modified Eagles Medium (DMEM) containing 10% […] bovine serum (defined FBS, Hyclone). Whole digested tissue was then suspended in DMEM 10% FBS, filtered through a sterile 107 μm nylon mesh and thoroughly mixed with an equal volume of PERCOLL™ (polyvinylpyrrolidone-coated silica colloids) solution. The PERCOLL™ (polyvinylpyrrolidone-coated silica colloids) solution was made by mixing 9 parts of PERCOLL™ (polyvinylpyrrolidone-coated silica colloids) (Pharmacia) with 1 part 10X phosphate buffered saline (PBS, Irvine Scientific). The cell suspension was then fractionated by centrifugation for 30 minute, 18°C., at 20,000×g. […]
To determine how rapidly cortical cells acquired the competence to differentiate into neurons in culture, cells were isolated and cultured in growth medium for various times, allowed to differentiate in differentiation medium and then evaluated for the presence of neurons. […] Cultures were also treated with BrdU for the first 10 days and the newly generated neurons were evaluated for evidence of cell division. All neurons scored were labeled (>99%).

[2] = system: c-Fos; assay: c-Fos immunofluorescence double labeling after neurotrophin stimulation; format: cell-based, rat; conditions: RA for 6 days prior to stimulation by neurotrophins
Method: Cell Culture. For proliferating conditions, clonal stem cells (AP14) were cultured in Dulbecco's Modified Eagles Medium/Ham's F12 (DMEM/F12, 1:1) containing N2 supplement (Gibco BRL, Gaithersburg, Md.) and 20 ng/ml rhFGF-2 (provided by A. Baird, Prizm Pharmaceuticals Inc., La Jolla, Calif.). Culture dishes (Becton Dickinsin Labware, Lincoln Park, N.J.) were coated with polyomithine and mouse laminin as previously described by Ray, et al., Proliferation, differentiation and long-term culture of primary hippocampal neurons, Proc Natl Acad Sci USA 90:3602-3606 (1993). For differentiation experiments, cells were plated into polyornithine/laminin coated glass chamber slides (Nunc, Naperville, Ill.) at a density of 2.5—103 per cm2. The cells were incubated for 24 hrs in normal N2 medium containing 20 ng/ml FGF-2, and then the medium was replaced by N2 medium containing 0.5% […] (FBS) and 0.01% DMSO (control solvent) or […] all-trans retinoic acid (Sigma, St. Louis, Mo.). […]
Immunofluorescence. […] Both the average percentage and the absolute number +/− SEM of immunofluorescent cells were determined by counting 10 or 50 high power fields (20×) visualized under fluorescence. The total number of cells was counted using nuclear counterstaining with 4′,6diamidino-2-phenylindole (DAPI, Sigma). […]

Row | Compound | newly generated neurons labeled with BrdU ([1]; BrdU for the first 10 days) [%] | neurons observed in cortical cultures ([1]; after three days in FGF-2) | cells that formed neurons when induced to differentiate ([1]; by 4 weeks in FGF-2 growth medium, 3 passages) | number of c-Fos-positive cells [2]
1 | FGF-2: basic fibroblast growth factor, human recombinant, prepared in E. coli | > 99 | the occasional neuron was observed | roughly 10% | 
2 | CC1=C(/C=C/C(C)=C/C=C/C(C)=C/C(=O)O)C(C)(C)CCC1 [RA, all-trans retinoic acid] |  |  |  | significantly enhanced
